20 substances from US20040029823A1, “Antisense oligonucleotide compositions and methods for the modulation of JNK proteins” (priority 1997, published 2004) can be followed below.

Strand notation (5' to 3'): a small letter for the sugar, then the base; units joined by * are phosphorothioate-linked, units joined directly phosphodiester-linked; [ ] holds rarer units or linkages, { } end groups; capitals alone tell only the bases. e = 2'-O-(2-methoxyethyl) (MOE); [5mC] = 5-methylcytosine; d = 2'-deoxy (DNA)

For the first series, the system named is JNK3 mRNA. The series can be described thus: Northern assay of JNK3 mRNA levels in SH-SY5Y cells. The class given is cell-based, human. To be noted: 200 nM oligonucleotide. On the procedure:
Northern Assays: The mRNA expression of each JNK protein was determined by using a nucleic acid probe specifically hybridizable thereto. Nucleic acid probes specific for JNK1, JNK2 and JNK3 are described in Examples 3, 4 and 5, respectively. The probes were radiolabelled by means well known in the art (see, e.g., Short Protocols in Molecular Biology, 2nd Ed., Ausubel et al., Eds., John Wiley & Sons, New York, 1992, pages 3-11 to 2-3-44 and 4-17 to 4-18; Ruth, Chapter 6 In: Methods in Molecular Biology, Vol. 26: Protocols for Oligonucleotide Conjugates, Agrawal, ed., Humana Press Inc., Totowa, N.J., 1994, pages 167-185; and Chapter 10 In: Molecular Cloning: A Laboratory Manual, 2nd Ed., Sambrook et al., Eds., pages 10.1-10.70). The blots were stripped and reprobed with a ^32P-labeled glyceraldehyde 3-phosphate dehydrogenase (G3PDH) probe (Clontech Laboratories, Inc., Palo Alto, Calif.) in order to confirm equal loading of RNA and to allow the levels of JNK transcripts to be normalized with regard to the G3PDH signals.
B. JNK3-specific probes: In initial screenings of a set of oligonucleotides derived from the JNK3 sequence for biological activity, a cDNA clone of JNK3 (Derijard et al., Cell, […], 76, 1025) was radiolabeled and used as a JNK3-specific probe in Northern blots. Alternatively, however, one or more of the oligonucleotides of Table 14 is detectably labeled and used as a JNK3-specific probe.
E. Activities of JNK3 oligonucleotides: The JNK3-specific phosphorothioate, 2′-methoxyethoxy “gapmer” oligonucleotides (Table 14) were screened for their ability to affect JNK3 mRNA levels in SH-SY5Y cells (Biedler et al., Cancer Res., 1973, 33, 2643). SH-SY5Y cells express a variety of mitogen-activated protein kinases (MAPKs; see, e.g., Cheng et al., J. Biol. Chem., 1998, 273, 14560). Cells were grown in DMEM essentially as previously described (e.g., Singleton et al., J. Biol. Chem., 1996, 271, 31791; Jalava et al., Cancer Res., 1990, 50, 3422) and treated with oligonucleotides at a concentration of 200 nM as described in Example 2. Control cultures were treated with an aliquot of LIPOFECTIN™ that contained no oligonucleotide.
With “16690 (antisense TTCAACAGTTTCTTGCATAA; sugars from the 5' end e6 d8 e6, all phosphorothioate, methylation of C not given here) [compound 16690]”, the “% EXPRESSION” value is given as 60% and the “% INHIBITION” value is reported as 40%.

With “16691 (antisense CTCATCTATAGGAAACGGGT; sugars from the 5' end e6 d8 e6, all phosphorothioate, methylation of C not given here) [compound 16691]”, the “% EXPRESSION” value came to 66% and the “% INHIBITION” value came to 34%.

Turning to “16692 (antisense TGGAGGCTCATAAATACCAC; sugars from the 5' end e6 d8 e6, all phosphorothioate, methylation of C not given here) [compound 16692]”, the “% EXPRESSION” value is recorded as 47%.

On to “16693 (antisense TATAAGAAATGGAGGCTCAT; sugars from the 5' end e6 d8 e6, all phosphorothioate, methylation of C not given here) [compound 16693]”, for which the “% EXPRESSION” value worked out at 40%.

“16694 (antisense TCACATCCAATGTTGGTTCA; sugars from the 5' end e6 d8 e6, all phosphorothioate, methylation of C not given here) [compound 16694]”: the “% EXPRESSION” value is 42%.

With “16695 (antisense TTATCGAATCCCTGACAAAA; sugars from the 5' end e6 d8 e6, all phosphorothioate, methylation of C not given here) [compound 16695]”, the “% EXPRESSION” value is given as 44%.

Consider “16696 (antisense GTTTGGCAATATATGACACA; sugars from the 5' end e6 d8 e6, all phosphorothioate, methylation of C not given here) [compound 16696]”, for which the “% EXPRESSION” value was 55%.

On to “16697 (antisense CTGTCAAGGACAGCATCATA; sugars from the 5' end e6 d8 e6, all phosphorothioate, methylation of C not given here) [compound 16697]”, for which the “% EXPRESSION” value was determined as 54%.

For the substance “16698 (antisense AATCACTTGACATAAGTTGG; sugars from the 5' end e6 d8 e6, all phosphorothioate, methylation of C not given here) [compound 16698]”, the “% EXPRESSION” value was 63% and the “% INHIBITION” value was found to be 37%.

Take “16699 (antisense TAAATCCCTGTGAATAATTC; sugars from the 5' end e6 d8 e6, all phosphorothioate, methylation of C not given here) [compound 16699]”: the “% EXPRESSION” value amounted to 61% and the “% INHIBITION” value came out at 39%.

With “16702 (antisense TGTTCTCTTTCATCCAACTG; sugars from the 5' end e6 d8 e6, all phosphorothioate, methylation of C not given here) [compound 16702]”, the “% EXPRESSION” value is given as 39%.

In the case of “16703 (antisense TCTCACTGCTGTTCACTGCT; sugars from the 5' end e6 d8 e6, all phosphorothioate, methylation of C not given here) [compound 16703]”, the “% EXPRESSION” value is 30%.

Consider “16704 (antisense GGGTCTGGTCGGTGGACATG; sugars from the 5' end e6 d8 e6, all phosphorothioate, methylation of C not given here) [compound 16704]”, for which the “% EXPRESSION” value is reported as 36%.

As for “16705 (antisense AGGCTGCTGTCAGTGTCAGA; sugars from the 5' end e6 d8 e6, all phosphorothioate, methylation of C not given here) [compound 16705]”, the “% EXPRESSION” value is listed as 42%.

On to “16706 (antisense TCACCTGCAACAACCCAGGG; sugars from the 5' end e6 d8 e6, all phosphorothioate, methylation of C not given here) [compound 16706]”, for which the “% EXPRESSION” value came to 45%.

As for “16707 (antisense GCGGCTAGTCACCTGCAACA; sugars from the 5' end e6 d8 e6, all phosphorothioate, methylation of C not given here) [compound 16707]”, the “% EXPRESSION” value is recorded as 73% and the “% INHIBITION” value was found to be 27%.

In the case of “16708 (antisense CGCTGGGTTTCGCAGGCAGG; sugars from the 5' end e6 d8 e6, all phosphorothioate, methylation of C not given here) [compound 16708]”, the “% EXPRESSION” value came to 68% and the “% INHIBITION” value amounted to 32%.

On to “16709 (antisense ATCATCTCCTGAAGAACGCT; sugars from the 5' end e6 d8 e6, all phosphorothioate, methylation of C not given here) [compound 16709]”, for which the “% EXPRESSION” value is 66% and the “% INHIBITION” value is given as 34%.

The next series relates to rat JNK1 mRNA. The series can be described thus: Northern assay of rat JNK1 (p54?) mRNA in A10 aortic smooth muscle cells. The settings on record: rat JNK1 mRNA, A10 cells, oligonucleotides targeted to rat JNK1. The class given is cell-based. On the procedure: (§1) In order to study the role of JNK proteins in animal models, oligonucleotides targeted to the genes encoding JNK1, JNK2 and JNK3 of Rattus norvegicus were prepared. These oligonucleotides are 2′-methoxyethoxy, phosphodiester/2′-hydroxyl, phosphorothioate/2′-methoxyethoxy, phosphodiester “gapmers” in which every cytosine residue is 5-methylcytosine (m5c). These antisense compounds were synthesized according to the methods of the disclosure. Certain of these oligonucleotides are additionally specifically hybridizable to JNK genes from other species as indicated herein. The oligonucleotides described in this Example were tested for their ability to modulate rat JNK mRNA levels essentially according to the methods described in the preceding Examples, with the exceptions that the cell line used was rat A10 aortic smooth muscle cells (ATCC No. ATCC CRL-1476) and the probes used were specific for rat JNK1, JNK2 or JNK3 (see infra). A10 cells were grown and treated with oligonucleotides essentially as described by (Cioffi et al. Mol. Pharmacol., 1997, 51, 383).
(§2) These antisense compounds were tested for their ability to modulate levels of p54? (JNK1) and p54a (JNK2) mRNA in A10 cells via Northern assays. Due to the high degree of sequence identity between the human and rat genes, radiolabeled human JNK1 (Example 3) and JNK2 (Example 4) cDNAs functioned as specific probes for the rat homologs.
For “21869 (DNA eGe[5mC]eTeGe[5mC]*dA*d[5mC]*d[5mC]*dT*dA*dA*dA*dG*dG*dA*eGeAe[5mC]eGeG; antisense) [compound 21869]”, the “% EXPRESSION JNK1” value turned out to be 30%.

For “21870 (DNA e[5mC]e[5mC]eAeGeA*dG*dT*d[5mC]*dG*dG*dA*dT*d[5mC]*dT*dG*eTeGeGeAe[5mC]; antisense) [compound 21870]”, the “% EXPRESSION JNK1” value is 11%.

A further series has as its system rat JNK2 mRNA. The series can be described thus: Northern assay of rat JNK2 (p54a) mRNA in A10 aortic smooth muscle cells. The class given is cell-based. The settings on record: rat JNK2 mRNA, A10 cells, oligonucleotides targeted to rat JNK1. As for the experimental part:
as §1, §2
These antisense compounds were tested for their ability to modulate levels of p54a (JNK2) mRNA in A10 cells using the radiolabeled human JNK2 cDNA as a probe as described supra. Oligonucleotides showing levels of inhibition from ≧ about 60% to about 100% of rat JNK2 mRNA levels include ISIS Nos. 18254, 18255, 18257, 18258, 18259, 18260 and 18265 (SEQ ID NOS: 125, 126, 128, 129, 130, 131 and 136, respectively). These oligonucleotides are preferred embodiments of the invention for modulating rat JNK2 expression. […] These oligonucleotides are thus more preferred embodiments of the invention for modulating rat JNK2 expression. ISIS 18259 (SEQ ID NO: 130) was chosen for use in further studies (infra).
Turning to “21869 (DNA eGe[5mC]eTeGe[5mC]*dA*d[5mC]*d[5mC]*dT*dA*dA*dA*dG*dG*dA*eGeAe[5mC]eGeG; antisense) [compound 21869]”, the “% EXPRESSION JNK2” value is given as 93%.

For “21870 (DNA e[5mC]e[5mC]eAeGeA*dG*dT*d[5mC]*dG*dG*dA*dT*d[5mC]*dT*dG*eTeGeGeAe[5mC]; antisense) [compound 21870]”, the “% EXPRESSION JNK2” value was found to be 87%.
